SMILES strings stand for the structures.

Common to all, as to assay type: physicochemical
Series [1] can be described thus: Surface tension analysis (DuNOUY ring tensiometer). Conditions: at parity of concentration (w/v), 25° C., relative to SDS. As to the method: Surface tension analysis was performed with an interfacial tensiometer Cenco DuNOUY® 70545 model. In this methodology, a ring-shaped steel tool is pulled up from a surfactant solution and the corresponding millinewton per meter (mN/m) of force applied to break the surface tension is indicated. Increasingly diluted surfactant solutions are measured until the reference value of deionised water is reached (72 mN/m). The measurements were performed at 25° C.

The nature of series [2]: Critical micelle concentration by conductivity assay. To be noted: conductivity at 25° C., relative to SDS. The method, then: Critical micelle concentration was estimated by a conductivity assay. In this assay a pen type EC-963 model conductivity meter tester was submerged into a milliQ® grade deionised water solution to have a zero reading of pS/cm. Increasing amounts of different surfactant solutions was added to this milliQ® water solution and the conductivity was measured at 25° C. The increasing conductivity is proportional to the surfactant activity. The change of slope in the two linear interpolating curves is an indication of the critical micelle concentration (CMC) point for the specific surfactant (Al-Soufi et al 2012).

Series [3] in a line: Drop shape analysis (wettability, dynamic contact angle). To be noted: solution at its CMC added to 20 μL deionised water drop. As to the method:
The dynamic behaviour of a 20 μL deionised water drop after the addition of an equal volume of surfactant solution at critical micelle concentration was recorded with a video recording system and analysed by a dedicated plug-in (LB-ADSA) of ImageJ® software for image analysis. The sessile drop is positioned on a smooth and plan surface of a borosilicate glass slide without any microdefects. A contour recognition is initially carried out based on a grey-scale analysis of the image. In the second step, a geometrical model describing the drop shape is fitted to the contour. The contact angle is the angle between the calculated drop shape function and the sample surface.

Series [4] can be described thus: Foaming stability. To be noted: 10 s stirring at 1500 rpm, at respective CMC values.

`CCCCCCCCCC(CCOS(=O)(=O)O)OS(=O)(=O)O` (stereo not drawn) [dodecyl (1,3) disulfate]: the “surface tension value better than sodium dodecyl sulfate (SDS)” value in series [1] came out at 4 fold. The “outperformance of SDS at the specific CMC concentration (change of slope point of conductivity)” value in series [2] was 3.5 fold. The “wettability (speed at which the contact angle of a water drop is broken) versus SDS” value in series [3] is reported as “higher that the SDS solution”. In series [4], the “foam decrease in volume over time” value amounted to 2 fold, the “foam decrease slower than SDS” value amounted to 3 times and the “foaming volume higher than SDS” value was 1.5 fold.

The record behind these values is patent US20210353517A1, “PROCESS FOR PRODUCING A BIO-BASED SURFACTANT” (University College Dublin, priority 2018, published 2021).
